Consider 1 sequence from patent US20110039762A1, “TARGETED ANTIMICROBIAL MOIETIES” (C3 JIAN, INC., priority 2009, published 2011).

One assay has as its system C. jeikeium. In words: Kill or inhibit growth/proliferation; morphology, biofilm and growth disruption (Tables 5, 6). Also: test concentration or dose not given here. The assay is classed as cell-based, Corynebacterium jeikeium. Details: key: A: Peptide aggregates; B: Less hyphal formation; Clumps; Diffuse clumps and small polyps; F: Diffuse growth; H: Thin; I: Growth inhibition; Microcolony formation; Rippled; Small polyps; Thick; W: Halo formation on top, microlonies on bottom.

In assay [1] the test system is MRSA. Kind of assay: MIC (broth microdilution). The assay is classed as cell-based, Methicillin-resistant Staphylococcus aureus. Summed up: (§1)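 Following NCCLS broth microdilution guidance, bacteria at ˜1×10^5 cfu/mL in Mueller-Hinton broth received 2-fold serially diluted peptides and were incubated at 37° C. for 18-24 h. Experiments were run 10 times.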
A further assay has as its system S. pneumoniae. Kind of assay: Kill or inhibit growth/proliferation; morphology, biofilm and growth disruption (Tables 5, 6). Also: test concentration or dose not given here. The assay is classed as cell-based, Streptococcus pneumoniae. Details: key: A: Peptide aggregates; B: Less hyphal formation; Clumps; Diffuse clumps and small polyps; F: Diffuse growth; H: Thin; I: Growth inhibition; Microcolony formation; Rippled; Small polyps; Thick; W: Halo formation on top, microlonies on bottom.

Assay [2] deals with S. epidermidis. The assay is classed as cell-based, Staphylococcus epidermidis. The note with it: S. epidermidis. An outline of the steps: as §1
Another assay relates to T. rubrum. Kind of assay: MIC (broth microdilution). In kind it is cell-based, Trichophyton rubrum. Summed up: (§2)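 MIC determined per NCCLS standard microdilution, with peptide 2-fold dilution series against ˜1×10^5 cfu/mL cells in Mueller-Hinton medium, incubated 18-24 h at 37° C.; ten independent experiments.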
Assay [3] has as its system C. albicans. In words: MIC (broth microdilution). In kind it is cell-based, Candida albicans. As for the experimental part:
(§3) Typically, the in vitro antimicrobial activity of antimicrobial agents is tested using standard NCCLS bacterial inhibition assays, or MIC tests (see, National Committee on Clinical Laboratory Standards “Performance Standards for Antimicrobial Susceptibility Testing,” NCCLS Document M100-S5 Vol. 14, No. 16, December 1994; “Methods for dilution antimicrobial susceptibility test for bacteria that grow aerobically-Third Edition,” Approved Standard M7-A3, National Committee for Clinical Standards, Villanova, Pa.).
(§4) Briefly, ˜1×10^5 cfu/mL bacteria were diluted in TH (S. mutans), or Mueller-Hinton (MH) broth (all other organisms) and distributed to 96-well plates. Serially-diluted (2-fold) peptides were then added and the plates incubated at 37° C. for 18-24 h. […] All experiments were conducted 10 times.

Assay [4] relates to E. faecalis. In words: MIC (broth microdilution). In kind it is cell-based, Enterococcus faecalis. As for the experimental part: as §3, §4
The subject of assay [5] is B. subtilis. In words: Kill or inhibit growth/proliferation; morphology, biofilm and growth disruption (Tables 5, 6). Also: test concentration or dose not given here. In kind it is cell-based, Bacillus subtilis. Further details: key: A: Peptide aggregates; B: Less hyphal formation; Clumps; Diffuse clumps and small polyps; F: Diffuse growth; H: Thin; I: Growth inhibition; Microcolony formation; Rippled; Small polyps; Thick; W: Halo formation on top, microlonies on bottom.

In assay [6] the test system is S. epidermidis. The description is as above. The assay is classed as cell-based, Staphylococcus epidermidis. Details: key: A: Peptide aggregates; B: Less hyphal formation; Clumps; Diffuse clumps and small polyps; F: Diffuse growth; H: Thin; I: Growth inhibition; Microcolony formation; Rippled; Small polyps; Thick; W: Halo formation on top, microlonies on bottom.
The subject of assay [7] is MRSA. The description is as above. In kind it is cell-based, Methicillin-resistant Staphylococcus aureus. Further details: key: A: Peptide aggregates; B: Less hyphal formation; Clumps; Diffuse clumps and small polyps; F: Diffuse growth; H: Thin; I: Growth inhibition; Microcolony formation; Rippled; Small polyps; Thick; W: Halo formation on top, microlonies on bottom.
Assay [8] concerns E. faecalis. Described as above. The assay is classed as cell-based, Enterococcus faecalis. Further details: key: A: Peptide aggregates; B: Less hyphal formation; Clumps; Diffuse clumps and small polyps; F: Diffuse growth; H: Thin; I: Growth inhibition; Microcolony formation; Rippled; Small polyps; Thick; W: Halo formation on top, microlonies on bottom.
Assay [9] relates to C. albicans. Described as above. The assay is classed as cell-based, Candida albicans. Further details: key: A: Peptide aggregates; B: Less hyphal formation; Clumps; Diffuse clumps and small polyps; F: Diffuse growth; H: Thin; I: Growth inhibition; Microcolony formation; Rippled; Small polyps; Thick; W: Halo formation on top, microlonies on bottom.
Another assay concerns A. niger. In words: MIC (broth microdilution). The assay is classed as cell-based, Aspergillus niger. An outline of the steps:
as §2

The subject of assay [10] is B. subtilis. In words: MIC (broth microdilution). In kind it is cell-based, Bacillus subtilis. An outline of the steps: as §1
For a further assay, the system named is microorganisms. In words: Peptides having multiple activities (targeting/binding, antimicrobial, growth or phenotype altering). The source says:
In certain embodiments, peptides described herein can have multiple activities. Thus for example, a peptide can have both binding/targeting activity and antimicrobial activity. Such peptides can be used, e.g., in a chimeric construct, for any or all of these properties. Thus, for example, a peptide designated “B” in Table 8 can be used as a targeting peptide. If it is also designated G or M it can also be used for antimicrobial activity.
For Organism, effect (morphology, biofilm and growth disruption) in this document: test concentration or dose not given here.

Take MRFGSLALVAYDSAIKHSWPRPSSVRRLRM [PF-672]: the “Organism, effect (morphology, biofilm and growth disruption)” value in the assay with C. jeikeium is “C. jeikeium (R)”; in the assay with S. pneumoniae, “S. pneumoniae (I)”; in the assay with B. subtilis [5], “B. subtilis (I)”; in the assay on S. epidermidis [6] it was “S. epidermidis (I)”; in the assay with MRSA [7], “MRSA (I)”; in the assay on E. faecalis [8], “E. faecalis (I)”. Further, in the assay on C. albicans [9], the “Organism, effect (morphology, biofilm and growth disruption)” value is recorded as “C. albicans (I)”. The MIC result with MRSA [1] is “MRSA , 1.56 μM”; against S. epidermidis [2], “S. epidermidis, 0.39 μM”; in the assay with T. rubrum, “T. rubrum, 0.78 μM”; in the assay with C. albicans [3], “C. albicans, 1.56 μM”; with E. faecalis [4], “E. faecalis, 3.13 μM”; against A. niger, “A. niger, 3 μM”. Further, in the assay on B. subtilis [10], the MIC result is given as “B. subtilis, 0.78 μM”. Besides, the Activities entry in the assay on microorganisms is “G B M”.
